A word on the IC50: it is the concentration needed to halve the response being measured.

Each structure is given as a SMILES string. Calls of active or inactive are those of the source. The rule behind the calls is not given here.

This test deals with Protein Rev (Human immunodeficiency virus type 1 group M subtype B (isolate HXB2)) (UniProt P04618). Kind of test: Rev-RRE interaction blockers – biochemical, FRET, dose response, counter-screen for gld-1 inhibitor project, late-stage follow-up (AID 488798). To be noted: FRET Rev-RRE RNA binding.
Chain of Protein Rev (Human immunodeficiency virus type 1 group M subtype B (isolate HXB2)) (P04618 whole entry, looked up): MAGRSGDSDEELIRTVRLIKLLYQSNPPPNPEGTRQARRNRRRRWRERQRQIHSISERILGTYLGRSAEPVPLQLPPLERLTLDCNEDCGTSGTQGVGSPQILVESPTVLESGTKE
Consider `O=C(CN1C(=O)NC2(CCCCC2)C1=O)Oc1ccc2c(C(F)(F)F)cc(=O)oc2c1`, for which the IC50 was > 75.4 µM (inactive).

`Nc1ccc(O)c2c1C(=O)c1ccccc1C2=O`: the IC50 was > 75.4 µM (inactive).

On to `O=C1C2=C(SCCS2)C(=O)N1CCCO`, for which the IC50 was > 75.4 µM (inactive).

As to `CCCCn1c(=O)[nH]c2nc3cc(NC(C)=O)ccc3nc2c1=O`, the IC50 result is “inactive”.

`CCN(CC)S(=O)(=O)c1ccc(N2CCCC2)c(NS(=O)(=O)c2ccc(F)cc2)c1`: the IC50 was > 75.4 µM (inactive).

Take `CC1=CC(=O)c2c(O)ccc(O)c2C1=O`: the IC50 is > 75.4 µM (inactive).

Turning to `Nc1c(O)ccc2c1C(=O)c1ccccc1C2=O`, the IC50 was > 75.4 µM (inactive).

As to `COc1ccc(/C=C(\CC(=O)O)c2nc3ccccc3s2)cc1O`, the IC50 was > 75.4 µM (inactive).

As for `Cc1ccc(S(=O)(=O)Nc2cc3c(C(=O)Nc4ccccc4)c(C)oc3c3ccccc23)c(C)c1`, the IC50 is > 75.4 µM (inactive).

With `COc1ccc(C=Nc2c(-c3ccco3)nc3ccccn23)cc1OC`, the IC50 was > 75.4 µM (inactive).

Turning to `Cc1ccc(S(=O)(=O)Nc2cc3c(C(=O)Nc4ccccc4)c(C)oc3c3ccccc23)cc1`, the IC50 result is “inactive”.

As for `O=c1[nH]c2cc3ccccc3cc2nc1C(F)(F)F`, the IC50 entry was “inactive”.

Turning to `Nc1ccc2nonc2c1[N+](=O)[O-]`, the IC50 is > 75.4 µM (inactive).

Take `CCOC(=O)c1c(C)oc2c1cc(NS(=O)(=O)c1ccc(C)cc1)c1ccccc12`: the IC50 was > 75.4 µM (inactive).

Consider `O=c1[nH]c(=O)c2nc3ccccc3nc2[nH]1`, for which the IC50 is > 75.4 µM (inactive).
